{"source": "patent US9757330B2", "about": "“Recipe for in-situ gel, and implant, drug delivery system formed thereby” (INDUSTRIAL TECHNOLOGY RESEARCH INSTITUTE, priority 2013, dated 2017)", "assay": "in-vitro release of risperidone from the in-situ hydrogel into PBS", "type": "physicochemical", "conditions": "agarose/urea in-situ hydrogel, Millicell insert in 7.5 ml PBS, HPLC, on the 28 day", "protocol": "800 μl of the stock solution was mixed with 200 μl of DI water containing dispersed risperidone (20 mg/ml). Then, 150 μl of the solution was added into 12-well Millicells and immersed the insert into 7.5 ml of PBS. The PBS solution was taken out at designated time point and replaced with fresh PBS. The concentration of risperidone was measured via HPLC. The release profile of risperidone from the in-situ hydrogel reached 86% on the 28 day (FIG. 2).", "data": [{"smiles": "Cc1nc2n(c(=O)c1CCN1CCC(c3noc4cc(F)ccc34)CC1)CCCC2", "note": "[risperidone]", "values": [{"measurement": "release of risperidone from the in-situ hydrogel", "value": 86, "unit": "%"}]}]}
